Numbered stars: 1 amine (or outer) side, 2 acyl side, 3 side chain; on linkers, the order of the positions; unused ones are H or OH. Bridge positions count the residues as written; N and C are the ends. Square brackets hold non-standard residues; d marks the D form. Peptide text beside a SMILES is read from it. * marks the point of attachment. X1 = CC[C@H](C)[C@@H](N[*:1])[C@@H](O)CC(=O)O[C@H](C(=O)[C@H](C)C(=O)[*:2])C(C)C; NMeY = CN[C@@H](Cc1ccc(O)cc1)C(=O)O; dNMeL = CN[C@H](CC(C)C)C(=O)O; Pyruvoyl = CC(=O)C(=O)* Where only a bound is given, the exact number is not on record here.

One series deals with 2-E channels (Severe acute respiratory syndrome coronavirus 2, UniProt P0DTC4). The format is biochemical, SARS-CoV-2.
The test system of series [1] is SARS-CoV-2. The conditions noted are these: in vivo; cited from earlier work.
The test system of series [2] is SARS-CoV-2. Conditions: in vivo; cited from earlier work. This is another data set of the same source.
Series [3] concerns SARS-CoV-2. Conditions: in vivo; cited from earlier work. This is another data set of the same source.
Series [4] has as its system 2-E-induced cell death in Vero E6 cells. The format is cell-based, African green monkey. The conditions noted are these: read-out: IC50 Cell protection.
Series [5] deals with SARS-CoV-2. The format is cell-based. Conditions: read-out: IC50 Anti-virus.

Sequence of 2-E channels (P0DTC4 whole entry, looked up): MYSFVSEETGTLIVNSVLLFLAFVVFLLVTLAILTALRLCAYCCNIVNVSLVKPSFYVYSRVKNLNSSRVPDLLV

As to 5-(N, N-hexamethylene)-amiloride [HMA], the “concentration with inhibitory activity on 2-E channels” value on 2-E channels was no less than 50 µM. In the series on Vero E6 cells, the “cytotoxicity (in words)” value is “strong cytotoxicity”.
Turning to `COC(=O)C1=C(C)NC(C)=C(C(=O)OC)C1c1ccccc1[N+](=O)[O-]` [Nifedipine], at 2-E channels, the “effects on 2-E channels” value was “negligible effects”.
As for `CC[N+](CC)(CC)CC` [Tetraethylammonium], the “effects on 2-E channels” value on 2-E channels was “negligible effects”.
Turning to `NC1=N[C@H](O)[C@H]2[C@H]3O[C@]4(O)O[C@@H]([C@@H](O)[C@@]2(N1)[C@@H]4O)[C@]3(O)CO` [Tetrodotoxin], the “effects on 2-E channels” value at 2-E channels is reported as “negligible effects”.
As for `NC12CC3CC(CC(C3)C1)C2` [amantadine], the “concentration with inhibitory activity on 2-E channels” value on 2-E channels was no less than 50 µM.
Consider `CN[C@H]1C(=O)N[C@@H]2Cc3ccc(cc3)Oc3cc4cc(c3O[C@@H]3O[C@H](C(=O)O)[C@@H](O)[C@H](O)[C@H]3NC(=O)CCCCCCCCC(C)C)Oc3ccc(cc3Cl)[C@@H](O)[C@@H]3NC(=O)[C@H](NC(=O)[C@@H]4NC(=O)[C@@H](NC2=O)c2cc(cc(O)c2Cl)Oc2cc1ccc2O)c1ccc(O)c(c1)-c1c(O[C@H]2O[C@H](CO)[C@@H](O)[C@H](O)[C@@H]2O)cc(O)cc1[C@@H](C(=O)NCCCN(C)C)NC3=O` [dalbavancin], for which the “prophylactic effects on viral replication and lung injuries” value (“prophylactic effects” below) with SARS-CoV-2 [1] is listed as “good prophylactic effects”.
For `CCN(CCO)CCCC(C)Nc1ccnc2cc(Cl)ccc12` (stereo not shown) [hydroxychloroquine], in the series with SARS-CoV-2 [2], the “virus loading or titers in the respiratory tissues” value is “failed to reduce virus loading or titers in the respiratory tissues”.
For the molecule `OC(c1cc(C(F)(F)F)nc2c(C(F)(F)F)cccc12)C1CCCCN1` (stereo not shown) [mefloquine], the “prophylactic effects” value with SARS-CoV-2 [1] is listed as “good prophylactic effects”.
With `CC[C@H](C)[C@H]1NC(=O)[C@@H](NC(=O)[C@@H](CC(C)C)N(C)C(=O)[C@@H]2CCCN2C(=O)C(C)=O)[C@@H](C)OC(=O)[C@H](Cc2ccc(OC)cc2)N(C)C(=O)[C@@H]2CCCN2C(=O)[C@H](CC(C)C)NC(=O)[C@@H](C)C(=O)[C@H](C(C)C)OC(=O)C[C@@H]1O` [plitidepsin] (Pyruvoyl-P[dNMeL]T[X1]LP[NMeY](Me); ester 3-C), the “prophylactic effects” value in the series with SARS-CoV-2 [1] is on record as “good prophylactic effects”.
Turning to `CCC(CC)COC(=O)[C@H](C)N[P@](=O)(OC[C@H]1O[C@@](C#N)(c2ccc3c(N)ncnn23)[C@H](O)[C@@H]1O)Oc1ccccc1` [remdesivir], the “virus loading in the respiratory tract” value with SARS-CoV-2 [3] is recorded as “cannot reduce the virus loading in the respiratory tract”.
Usually IC50 stands for the concentration needed to halve the response being measured. Consider Berbamine [BE-12], for which the IC50 came out at 34.3 µM in series [4] and 14.5 µM in the series on SARS-CoV-2 [5].

Values taken from publication PMC8190750 (Cell Research, 2021).
